Measured values: patent US7244855B2, “Synthesis of oligomeric epicatechin and catechin-derived procyanidins” (Mars, Inc., priority 2002, dated 2007)

Columns and labels:
[1] = tested on: MDA MB-231 human breast cancer cells; test: Cell cycle analysis by flow cytometry (Vindelov method); assay type: cell-based; conditions: for Effect on cell cycle (G0/G1 arrest), in words: procyanidin-treated MDA MB-231 cells, see Table 1; for Increase in G0/G1 arrest, synthetic compared to natural procyanidin: see Table 2
Protocol: The MDA MB-231 cell line was P53 defective, ER negative, and constitutively expressed K-ras. Cells were cultured in T-75s in IMEM medium (BioFluids Inc.) supplemented with 10% FBS (Gibco BRL Life Technologies) in a humidified 5% CO2 atmosphere at 37° C. […] See Vindelov, L. et al., “A Detergent Trypsin Method for the Preparation of Nuclei for Flow Cytometric DNA Analysis”, Cytometry, 1983, 3, 323–327. Analyses were performed by the Lombardi Cancer Center Flow Cytometry Core Facility at Georgetown University Medical Center.

[2] = tested on: human breast cancer cell lines; test: Cytotoxicity assay (microculture tetrazolium assay modified for crystal violet); assay type: cell-based
Protocol: The human breast cancer cell lines MCF-7, SKBR-3, MDA 435, and MDA MB-231 were obtained from the Lombardi Cancer Center Cell Culture Core Facility at Georgetown University Medical Center. The MDA MB-231 cell line was P53 defective, ER negative, and constitutively expressed K-ras. Cells were cultured in T-75s in IMEM medium (BioFluids Inc.) supplemented with 10% FBS (Gibco BRL Life Technologies) in a humidified 5% CO2 atmosphere at 37° C.
Cytotoxicity assays were performed on several human breast cancer cell lines treated with test compounds in a 96 well microtiter plate format using the microculture tetrazolium assay^28 modified for use with crystal violet rather than MTT. Briefly, 1–2×10^3 cells were added per well and allowed to culture in a humidified, 5% CO2 atmosphere until they reached approximately 50% confluence. Sterile filtered test compounds were added at various concentrations, and the plates were allowed to culture for an additional 12–36 hours. The growth medium was then removed, and each well was washed twice with 200 μL each of pH 7.4 PBS. […] At the end of 1 hour, the plates were scanned at 570 nm (ref. 405 nm) with a Molecular Devices Corporation microtiter plate reader, and the data was recorded with the SOFTMAX software program. The average of 3 readings was taken for each blank, control, vehicle, and test concentration for statistical data manipulation.

[3] = Table 3, 100 μM H2O2 + catalase, 24 hr
[4] = Table 3, 100 μM H2O2 + heat inactivated catalase, 24 hr
[5] = Table 2, natural versus synthetic, 200 μg/mL, 24 hr
[6] = Table 1, procyanidins purified from cocoa, 200 μg/mL, 24 hrs
[7] = Table 3, 200 μg/mL + 100 μM H2O2 + catalase, 24 hr
[8] = Table 3, 200 μg/mL + 100 μM H2O2 + heat inactivated catalase, 24 hr
[9] = Table 3, 200 μg/mL + 100 μM H2O2, 24 hr
[10] = Table 3, 200 μg/mL + catalase, 24 hr
[11] = Table 3, 200 μg/mL + heat inactivated catalase, 24 hr

## OO [H2O2, hydrogen peroxide, reference compound]
[1]; [3]
  % G0/G1: 35.20%
  % G2/M: 21.86%
  % S: 42.93%
[1]; [4]
  % G0/G1: 20.27%
  % G2/M: 34.25%
  % S: 45.48%
[1]; Table 3, 100 μM H2O2, 24 hr
  % G0/G1: 20.32%
  % G2/M: 34.76%
  % S: 44.92%
[1]; hydrogen peroxide at levels reported in the literature, see Table 3
  Effect of hydrogen peroxide on cell cycle, in words: shift in the cell cycle to G2/M with a decrease in G0/G1

## Oc1cc(O)c2c(c1)O[C@H](c1ccc(O)c(O)c1)[C@H](O)[C@H]2c1c(O)cc(O)c2c1O[C@H](c1ccc(O)c(O)c1)[C@H](O)[C@H]2c1c(O)cc(O)c2c1O[C@H](c1ccc(O)c(O)c1)[C@H](O)[C@H]2c1c(O)cc(O)c2c1O[C@H](c1ccc(O)c(O)c1)[C@H](O)[C@H]2c1c(O)cc(O)c2c1O[C@H](c1ccc(O)c(O)c1)[C@H](O)C2 [Natural pentamer, epicatechin (4β,8)4-pentamer]
[1]; [5]
  % G0/G1: 45.99%
  % G2/M: 15.76%
  % S: 38.25%

## Oc1cc(O)c2c(c1)O[C@H](c1ccc(O)c(O)c1)[C@H](O)[C@H]2c1c(O)cc(O)c2c1O[C@H](c1ccc(O)c(O)c1)[C@H](O)[C@H]2c1c(O)cc(O)c2c1O[C@H](c1ccc(O)c(O)c1)[C@H](O)[C@H]2c1c(O)cc(O)c2c1O[C@H](c1ccc(O)c(O)c1)[C@H](O)C2 [Natural tetramer, epicatechin (4β,8)3-tetramer]
[1]; [6]
  % G0/G1: 51.46%
  % G2/M: 20.30%
  % S: 28.25%
[1]; [5]
  % G0/G1: 36.82%
  % G2/M: 19.02%
  % S: 43.37%
[1]
  Effect on cell cycle (G0/G1 arrest), in words: only a slight effect

## Oc1cc(O)c2c(c1)O[C@H](c1ccc(O)c(O)c1)[C@H](O)[C@H]2c1c(O)cc(O)c2c1O[C@H](c1ccc(O)c(O)c1)[C@H](O)[C@H]2c1c(O)cc(O)c2c1O[C@H](c1ccc(O)c(O)c1)[C@H](O)C2 [Natural trimer, epicatechin (4β,8)2-trimer]
[1]; [6]
  % G0/G1: 43.22%
  % G2/M: 20.80%
  % S: 35.98%
[1]; [5]
  % G0/G1: 28.46%
  % G2/M: 23.05%
  % S: 48.49%
[1]
  Effect on cell cycle (G0/G1 arrest), in words: no effect

## Oc1cc(O)c2c(c1)O[C@H](c1ccc(O)c(O)c1)[C@H](O)[C@H]2c1c(O)cc(O)c2c1O[C@H](c1ccc(O)c(O)c1)[C@H](O)[C@H]2c1c(O)cc(O)c2c1O[C@H](c1ccc(O)c(O)c1)[C@H](O)[C@H]2c1c(O)cc(O)c2c1O[C@H](c1ccc(O)c(O)c1)[C@H](O)[C@H]2c1c(O)cc(O)c2c1O[C@H](c1ccc(O)c(O)c1)[C@H](O)C2 [Pentamers, epicatechin (4β,8)4-pentamer]
[2]; purified from cocoa polyphenol extracts or prepared synthetically
  Cytotoxicity to human breast cancer cell lines: cytotoxicity to human breast cancer cell lines
[1]; [7]
  % G0/G1: 48.20%
  % G2/M: 20.68%
  % S: 31.12%
[1]; [8]
  % G0/G1: 39.47%
  % G2/M: 37.14%
  % S: 23.39%
[1]; [9]
  % G0/G1: 42.67%
  % G2/M: 38.71%
  % S: 18.63%
[1]; [10]
  % G0/G1: 41.23%
  % G2/M: 20.12%
  % S: 39.65%
[1]; [11]
  % G0/G1: 42.89%
  % G2/M: 17.68%
  % S: 39.43%
[1]; Table 3, 200 μg/mL, 24 hr
  % G0/G1: 44.94%
  % G2/M: 17.05%
  % S: 38.01%
[1]
  Effect on cell cycle (G0/G1 arrest), in words: caused a G0/G1 arrest

## Oc1cc(O)c2c(c1)O[C@H](c1ccc(O)c(O)c1)[C@H](O)[C@H]2c1c(O)cc(O)c2c1O[C@H](c1ccc(O)c(O)c1)[C@H](O)[C@H]2c1c(O)cc(O)c2c1O[C@H](c1ccc(O)c(O)c1)[C@H](O)[C@H]2c1c(O)cc(O)c2c1O[C@H](c1ccc(O)c(O)c1)[C@H](O)[C@H]2c1c(O)cc(O)c2c1O[C@H](c1ccc(O)c(O)c1)[C@H](O)C2 [Synthetic pentamer, epicatechin (4β,8)4-pentamer]
[2]; several breast cancer cell lines
  Cell growth inhibition: inhibited cell growth
[1]; 200 μg/mL, 24 hr
  Increase in G0/G1 arrest, synthetic compared to natural procyanidin: approximately 30%
[1]; [5]
  % G0/G1: 64.15%
  % G2/M: 12.49%
  % S: 23.36%

## Oc1cc(O)c2c(c1)O[C@H](c1ccc(O)c(O)c1)[C@H](O)[C@H]2c1c(O)cc(O)c2c1O[C@H](c1ccc(O)c(O)c1)[C@H](O)[C@H]2c1c(O)cc(O)c2c1O[C@H](c1ccc(O)c(O)c1)[C@H](O)[C@H]2c1c(O)cc(O)c2c1O[C@H](c1ccc(O)c(O)c1)[C@H](O)C2 [Synthetic tetramer, epicatechin (4β,8)3-tetramer]
[1]; 200 μg/mL, 24 hr
  Increase in G0/G1 arrest, synthetic compared to natural procyanidin: approximately 15%
[1]; [5]
  % G0/G1: 43.49%
  % G2/M: 17.03%
  % S: 39.39%

## Oc1cc(O)c2c(c1)O[C@H](c1ccc(O)c(O)c1)[C@H](O)[C@H]2c1c(O)cc(O)c2c1O[C@H](c1ccc(O)c(O)c1)[C@H](O)[C@H]2c1c(O)cc(O)c2c1O[C@H](c1ccc(O)c(O)c1)[C@H](O)C2 [Synthetic trimer, epicatechin (4β,8)2-trimer]
[1]; 200 μg/mL, 24 hr
  Increase in G0/G1 arrest, synthetic compared to natural procyanidin: No difference in activity
[1]; [5]
  % G0/G1: 26.98%
  % G2/M: 23.45%
  % S: 49.57%
